These results are taken from patent US20090326003A1, “PYRAZOLO (3, 4-B) PYRIDINE DERIVATIVES AS PDE4 INHIBITORS” (priority 2006, published 2009).

For the test, the target named is T1, PDE4B (human recombinant) (Homo sapiens, UniProt Q07343).
T1 construct: made in house
T1 sequence (Q07343 1-564 isoform Q07343-2): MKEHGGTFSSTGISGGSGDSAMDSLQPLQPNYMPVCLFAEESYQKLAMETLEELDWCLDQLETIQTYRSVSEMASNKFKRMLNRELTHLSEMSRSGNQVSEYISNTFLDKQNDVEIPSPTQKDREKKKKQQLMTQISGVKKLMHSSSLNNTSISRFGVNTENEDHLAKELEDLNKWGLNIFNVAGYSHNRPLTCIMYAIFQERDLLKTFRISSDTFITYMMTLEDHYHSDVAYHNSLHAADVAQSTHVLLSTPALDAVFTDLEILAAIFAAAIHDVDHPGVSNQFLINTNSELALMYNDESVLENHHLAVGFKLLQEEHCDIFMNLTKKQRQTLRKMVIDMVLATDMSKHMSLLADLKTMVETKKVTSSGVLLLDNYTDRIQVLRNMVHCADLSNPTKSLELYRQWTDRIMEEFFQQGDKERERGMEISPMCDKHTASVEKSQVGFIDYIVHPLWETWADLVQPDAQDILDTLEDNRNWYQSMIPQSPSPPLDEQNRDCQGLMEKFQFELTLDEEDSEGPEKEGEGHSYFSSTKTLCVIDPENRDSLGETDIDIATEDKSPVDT
Put plainly: PDE4B inhibition, fluorescence polarisation (FP) and/or SPA assay. The test is classed as biochemical. As to conditions: n=1 or average of 2 or more readings, accuracy ±about 0.5 log unit, read-out: PDE4B pIC50 (generally in FP assay) (±about 0.5) (converted). The method, boiled down: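 Human recombinant PDE4B (yeast-expressed, HSPDE4B2B variant) preincubated with compound 10-30 min at ambient temperature; SPA with ~10 nM [3H]cAMP, 1 h, Tris-HCl pH 7.5, ≤20% hydrolysis; or IMAP FP with ~40 nM fluorescein-cAMP, Tris-HCl pH 7.2. pIC50 from 10-point curves (1.5 nM-30 uM).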
Take `CCn1ncc2c(NC3CCOCC3)c(CNC(=O)c3cccc(-c4cccc(C(=O)NCc5c(C)nc6c(cnn6CC)c5NC5CCOCC5)c4)c3)c(C)nc21` [Example 29, N,N′-bis{[1-ethyl-6-methyl-4-(tetrahydro-2H-pyran-4-ylamino)-1H-pyrazolo[3,4-b]pyridin-5-yl]methyl}-3,3′-biphenyldicarboxamide]: the IC50 was approximately 100 pM.
Take `CCc1nc2c(cnn2CC)c(NC2CCOCC2)c1CNC(=O)c1ccc(C(=O)NCc2c(CC)nc3c(cnn3CC)c2NC2CCOCC2)o1` [Example 35, N,N′-bis{[1,6-diethyl-4-(tetrahydro-2H-pyran-4-ylamino)-1H-pyrazolo[3,4-b]pyridin-5-yl]methyl}-2,5furandicarboxamide]: the IC50 is approximately 39.8 pM.
On to `CCc1nc2c(cnn2CC)c(NC2CCOCC2)c1CNC(=O)c1ccc(-c2ccc(C(=O)NCc3c(CC)nc4c(cnn4CC)c3NC3CCOCC3)cc2)cc1` [Example 23, N,N′-bis{[1,6-diethyl-4-(tetrahydro-2H-pyran-4-ylamino)-1H-pyrazolo[3,4-b]pyridin-5-yl]methyl}-4,4′-biphenyldicarboxamide], for which the IC50 was approximately 158 pM.
